# Like-named read-outs stand apart in the source and are kept apart here.
# Legend:
# [1] = molecular target: EGFR del19/T790M/C797S (Homo sapiens, UniProt P00533, C797S/DEL746-750/T790M); assay: Biochemical EGFR kinase assay (Lance Ultra TR-FRET), triple mutant del19/T790M/C797S
# Summary of the method: (§1)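 Step 1: compound in kinase buffer, 0.003–10 μM. Step 2: kinase reaction 1 h at room temperature. Step 4: TR-FRET read at 615/665 nm; IC50 calculated.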
# [2] = molecular target: EGFR del19/C797S (Homo sapiens, UniProt P00533, C797S/DEL746-750); assay: Biochemical EGFR kinase assay (Lance Ultra TR-FRET), double mutant del19/C797S
# Chain of EGFR del19/C797S (P00533 with tags, fused parts or gaps DEL746-750/C797S): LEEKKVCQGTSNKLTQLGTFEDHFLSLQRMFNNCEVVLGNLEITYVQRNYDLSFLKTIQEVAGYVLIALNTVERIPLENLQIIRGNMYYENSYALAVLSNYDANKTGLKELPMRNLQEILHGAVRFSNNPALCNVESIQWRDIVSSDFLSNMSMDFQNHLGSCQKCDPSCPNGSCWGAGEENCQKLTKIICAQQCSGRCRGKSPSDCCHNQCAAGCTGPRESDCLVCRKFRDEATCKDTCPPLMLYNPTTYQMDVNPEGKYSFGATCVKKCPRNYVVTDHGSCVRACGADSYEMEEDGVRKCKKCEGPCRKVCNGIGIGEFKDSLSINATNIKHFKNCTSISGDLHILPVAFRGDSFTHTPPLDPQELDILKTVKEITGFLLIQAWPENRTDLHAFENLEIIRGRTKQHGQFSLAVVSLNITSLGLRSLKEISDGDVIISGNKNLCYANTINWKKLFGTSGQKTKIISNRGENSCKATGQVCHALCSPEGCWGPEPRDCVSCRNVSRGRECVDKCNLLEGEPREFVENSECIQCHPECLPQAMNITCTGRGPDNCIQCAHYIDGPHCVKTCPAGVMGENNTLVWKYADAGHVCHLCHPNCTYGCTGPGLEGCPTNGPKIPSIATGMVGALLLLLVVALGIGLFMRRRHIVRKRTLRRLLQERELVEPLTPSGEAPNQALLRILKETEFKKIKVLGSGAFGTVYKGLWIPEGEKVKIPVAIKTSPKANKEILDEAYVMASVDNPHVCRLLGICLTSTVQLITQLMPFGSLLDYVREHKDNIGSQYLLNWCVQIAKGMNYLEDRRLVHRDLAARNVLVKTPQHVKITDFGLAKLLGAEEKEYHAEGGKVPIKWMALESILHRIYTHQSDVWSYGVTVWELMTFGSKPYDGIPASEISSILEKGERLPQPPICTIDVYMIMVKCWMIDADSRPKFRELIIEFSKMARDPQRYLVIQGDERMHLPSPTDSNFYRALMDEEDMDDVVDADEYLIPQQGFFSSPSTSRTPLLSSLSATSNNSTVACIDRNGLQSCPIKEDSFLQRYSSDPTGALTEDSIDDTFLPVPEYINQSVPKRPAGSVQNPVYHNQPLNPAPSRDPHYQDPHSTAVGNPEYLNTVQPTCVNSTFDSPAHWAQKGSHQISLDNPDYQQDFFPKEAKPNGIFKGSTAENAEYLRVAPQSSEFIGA
# Summary of the method: as §1
# [3] = molecular target: EGFR wildtype (WT) (Homo sapiens, UniProt P00533); assay: Biochemical EGFR kinase assay (Lance Ultra TR-FRET), wildtype
# Chain of EGFR wildtype (WT) (P00533 25-1210): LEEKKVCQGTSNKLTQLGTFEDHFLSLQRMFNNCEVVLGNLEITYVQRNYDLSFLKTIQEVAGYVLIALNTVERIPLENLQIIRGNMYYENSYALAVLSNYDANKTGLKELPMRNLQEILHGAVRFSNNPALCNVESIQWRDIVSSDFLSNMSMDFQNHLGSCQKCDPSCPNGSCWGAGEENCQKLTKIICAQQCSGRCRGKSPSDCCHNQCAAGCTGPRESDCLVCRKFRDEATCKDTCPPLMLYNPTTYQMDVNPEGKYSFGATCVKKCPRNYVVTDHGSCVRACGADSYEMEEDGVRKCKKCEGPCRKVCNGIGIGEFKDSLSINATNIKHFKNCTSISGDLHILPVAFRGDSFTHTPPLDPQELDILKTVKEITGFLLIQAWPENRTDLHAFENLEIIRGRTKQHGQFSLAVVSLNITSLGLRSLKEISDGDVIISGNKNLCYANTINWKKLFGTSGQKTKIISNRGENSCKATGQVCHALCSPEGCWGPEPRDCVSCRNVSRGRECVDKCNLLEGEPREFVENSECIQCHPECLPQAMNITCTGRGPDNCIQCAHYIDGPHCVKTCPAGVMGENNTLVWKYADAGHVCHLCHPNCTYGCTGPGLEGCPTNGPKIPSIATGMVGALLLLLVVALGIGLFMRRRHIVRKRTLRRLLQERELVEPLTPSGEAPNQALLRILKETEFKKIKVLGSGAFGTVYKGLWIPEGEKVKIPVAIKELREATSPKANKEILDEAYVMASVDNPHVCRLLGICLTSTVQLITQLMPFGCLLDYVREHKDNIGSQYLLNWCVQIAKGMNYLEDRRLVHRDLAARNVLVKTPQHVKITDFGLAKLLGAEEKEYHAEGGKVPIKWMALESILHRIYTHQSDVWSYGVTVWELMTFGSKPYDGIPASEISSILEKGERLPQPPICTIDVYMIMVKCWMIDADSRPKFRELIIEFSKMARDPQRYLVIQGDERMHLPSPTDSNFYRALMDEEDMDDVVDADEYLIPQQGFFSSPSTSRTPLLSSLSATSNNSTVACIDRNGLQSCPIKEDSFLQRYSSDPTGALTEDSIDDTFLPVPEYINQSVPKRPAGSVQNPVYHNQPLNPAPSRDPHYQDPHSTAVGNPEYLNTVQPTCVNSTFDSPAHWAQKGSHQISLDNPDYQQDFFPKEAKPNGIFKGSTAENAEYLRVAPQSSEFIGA
# Summary of the method: as §1
# [4] = molecular target: EGFR L858R/C797S (Homo sapiens, UniProt P00533, C797S/L858R); assay: Biochemical EGFR kinase assay (Lance Ultra TR-FRET), double mutant L858R/C797S
# Summary of the method: as §1
# [5] = molecular target: EGFR L858R/T790M/C797S (Homo sapiens, UniProt P00533, C797S/L858R/T790M); assay: Biochemical EGFR kinase assay (Lance Ultra TR-FRET), triple mutant L858R/T790M/C797S
# Chain of EGFR L858R/T790M/C797S (P00533 25-1210 T790M/C797S/L858R): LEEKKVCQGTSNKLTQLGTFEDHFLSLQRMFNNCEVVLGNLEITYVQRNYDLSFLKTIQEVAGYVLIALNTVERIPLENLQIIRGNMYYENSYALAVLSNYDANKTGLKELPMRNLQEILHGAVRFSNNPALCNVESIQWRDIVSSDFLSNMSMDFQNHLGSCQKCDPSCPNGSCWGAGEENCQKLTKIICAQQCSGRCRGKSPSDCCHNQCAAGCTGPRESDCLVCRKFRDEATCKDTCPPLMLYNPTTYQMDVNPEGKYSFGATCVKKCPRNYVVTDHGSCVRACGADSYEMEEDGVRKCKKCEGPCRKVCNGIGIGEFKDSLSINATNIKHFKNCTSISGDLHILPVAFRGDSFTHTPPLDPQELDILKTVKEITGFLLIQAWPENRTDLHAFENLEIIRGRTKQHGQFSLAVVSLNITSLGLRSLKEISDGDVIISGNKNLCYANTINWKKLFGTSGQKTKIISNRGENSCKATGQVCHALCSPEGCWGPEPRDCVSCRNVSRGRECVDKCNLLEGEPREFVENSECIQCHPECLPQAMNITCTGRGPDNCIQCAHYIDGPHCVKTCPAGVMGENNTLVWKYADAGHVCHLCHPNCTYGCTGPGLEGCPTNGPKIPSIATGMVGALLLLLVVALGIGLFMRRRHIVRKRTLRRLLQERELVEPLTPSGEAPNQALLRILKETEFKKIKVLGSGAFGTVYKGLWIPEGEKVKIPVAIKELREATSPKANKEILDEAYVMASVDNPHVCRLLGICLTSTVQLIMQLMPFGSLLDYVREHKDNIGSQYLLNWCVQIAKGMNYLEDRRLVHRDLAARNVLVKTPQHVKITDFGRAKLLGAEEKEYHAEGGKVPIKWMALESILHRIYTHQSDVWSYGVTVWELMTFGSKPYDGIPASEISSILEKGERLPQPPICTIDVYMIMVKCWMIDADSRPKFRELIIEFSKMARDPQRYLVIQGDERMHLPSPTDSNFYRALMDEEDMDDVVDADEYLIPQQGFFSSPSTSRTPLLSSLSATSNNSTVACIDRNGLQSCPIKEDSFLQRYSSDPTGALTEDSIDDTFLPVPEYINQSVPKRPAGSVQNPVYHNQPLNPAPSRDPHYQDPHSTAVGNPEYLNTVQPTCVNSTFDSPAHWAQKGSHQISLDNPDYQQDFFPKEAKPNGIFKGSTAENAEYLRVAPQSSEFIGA
# Summary of the method: as §1
# [6] = IC50 del19/T790M/C797S (nM) 100 μM ATP, 100 μM ATP
# [7] = Km ATP, read-out: IC50 del19/T790M/C797S (nM) Km ATP
# [8] = IC50 del19/C797S (nM) 100 μM ATP, 100 μM ATP
# [9] = Km ATP, read-out: IC50 del19/C797S (nM) Km ATP
# [10] = IC50 WT (nM) 100 μM ATP, 100 μM ATP
# [11] = Km ATP, read-out: IC50 WT (nM) Km ATP
# [12] = IC50 L858R/C797S (nM) 100 μM ATP, 100 μM ATP
# [13] = Km ATP, read-out: IC50 L858R/C797S (nM) Km ATP
# [14] = IC50 L858R/T790M/C797S (nM) 100 μM ATP, 100 μM ATP
# [15] = Km ATP, read-out: IC50 L858R/T790M/C797S (nM) Km ATP
# [16] = read-out: IC50 del19/T790M/C797S (nM) 100 μM ATP, 100 μM ATP
# [17] = read-out: IC50 del19/C797S (nM) 100 μM ATP, 100 μM ATP
# [18] = read-out: IC50 WT (nM) 100 μM ATP, 100 μM ATP
# [19] = read-out: IC50 L858R/C797S (nM) 100 μM ATP, 100 μM ATP
# [20] = read-out: IC50 L858R/T790M/C797S (nM) 100 μM ATP, 100 μM ATP
# Chain of EGFR del19/T790M/C797S (P00533 with tags, fused parts or gaps DEL746-750/T790M/C797S): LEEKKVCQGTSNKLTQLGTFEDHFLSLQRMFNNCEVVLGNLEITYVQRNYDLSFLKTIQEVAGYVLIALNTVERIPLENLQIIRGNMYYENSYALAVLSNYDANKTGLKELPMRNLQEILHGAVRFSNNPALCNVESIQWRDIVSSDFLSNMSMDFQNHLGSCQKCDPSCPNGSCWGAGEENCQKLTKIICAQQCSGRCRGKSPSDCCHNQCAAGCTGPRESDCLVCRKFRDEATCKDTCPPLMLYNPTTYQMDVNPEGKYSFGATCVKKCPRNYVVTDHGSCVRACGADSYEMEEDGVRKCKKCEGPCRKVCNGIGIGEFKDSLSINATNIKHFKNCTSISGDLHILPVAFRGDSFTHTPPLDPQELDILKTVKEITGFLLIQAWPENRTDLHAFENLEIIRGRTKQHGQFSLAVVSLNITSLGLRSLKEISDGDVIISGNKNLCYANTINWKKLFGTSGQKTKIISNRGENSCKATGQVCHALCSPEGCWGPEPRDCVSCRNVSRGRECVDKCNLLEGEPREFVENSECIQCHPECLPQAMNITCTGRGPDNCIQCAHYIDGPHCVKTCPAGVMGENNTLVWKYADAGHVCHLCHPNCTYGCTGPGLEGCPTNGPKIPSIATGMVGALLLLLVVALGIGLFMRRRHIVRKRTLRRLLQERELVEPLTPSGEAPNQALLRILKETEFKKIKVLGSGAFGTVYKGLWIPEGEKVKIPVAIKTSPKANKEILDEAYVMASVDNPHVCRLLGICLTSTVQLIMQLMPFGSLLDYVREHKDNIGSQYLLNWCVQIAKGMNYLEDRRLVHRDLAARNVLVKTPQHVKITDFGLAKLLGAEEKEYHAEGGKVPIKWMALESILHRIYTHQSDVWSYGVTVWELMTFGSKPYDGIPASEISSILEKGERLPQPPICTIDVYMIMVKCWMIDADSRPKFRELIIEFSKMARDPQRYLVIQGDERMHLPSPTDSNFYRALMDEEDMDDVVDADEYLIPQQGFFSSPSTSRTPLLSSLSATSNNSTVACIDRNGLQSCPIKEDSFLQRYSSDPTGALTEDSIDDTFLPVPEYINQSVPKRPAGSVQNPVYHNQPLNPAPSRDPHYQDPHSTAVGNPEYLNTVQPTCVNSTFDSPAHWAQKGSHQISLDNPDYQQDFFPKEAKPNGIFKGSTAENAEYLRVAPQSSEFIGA
Structure (SMILES),"IC50 [1, 6]","IC50 [1, 7]","IC50 [2, 8]","IC50 [2, 9]","IC50 [3, 10]","IC50 [3, 11]","IC50 [4, 12]","IC50 [4, 13]","IC50 [5, 14]","IC50 [5, 15]","IC50 [1, 16]","IC50 [2, 17]","IC50 [3, 18]","IC50 [4, 19]","IC50 [5, 20]"
"O=S(=O)(C1CC1)n1cc(-c2nccc(Nc3cc(OC4CCC(O)CC4)c(-c4cnn(C(F)F)c4)cn3)n2)cn1 (stereo not shown) [Example 71, 4-((2-((2-(1-(Cyclopropylsulfonyl)-1H-pyrazol-4-yl)pyrimidin-4-yl)amino)-5-(1-(difluoromethyl)-1H-pyrazol-4-yl)pyridin-4-yl)oxy)cyclohexan-1-ol]",0.2 nM,0.2 nM,1.7 nM,3.4 nM,> 10000 nM,26 nM,42.3 nM,2.6 nM,0.8 nM,0.1 nM,–,–,–,–,–
"Cn1ccc(-c2cnc(Nc3ccnc(-c4cnn(S(=O)(=O)C5CC5)c4)n3)cc2N[C@H]2CC[C@@H](F)CC2)n1 [Example 174, N^2-(2-(1-(Cyclopropylsulfonyl)-1H-pyrazol-4-yl)pyrimidin-4-yl)-N^4-((1s,4s)-4-fluorocyclohexyl)-5-(1-methyl-1H-pyrazol-3-yl)pyridine-2,4-diamine]",–,1.4 nM,–,2.4 nM,–,13.2 nM,–,0.5 nM,–,0.8 nM,–,–,–,–,–
"O=S(=O)(C1CC1)n1cc(-c2nccc(Nc3cc(NC[C@H]4C[C@H](O)C4)c(-c4ccn(C(F)F)n4)cn3)n2)cn1 [Example 34, (1r,3r)-3-(((2-((2-(1-(Cyclopropylsulfonyl)-1H-pyrazol-4-yl)pyrimidin-4-yl)amino)-5-(1-(difluoromethyl)-1H-pyrazol-3-yl)pyridin-4-yl)amino)methyl)cyclobutan-1-ol]",0.9 nM,0.4 nM,4.2 nM,1.9 nM,> 10000 nM,19.4 nM,53.3 nM,2 nM,1.6 nM,0.2 nM,–,–,–,–,–
"O=S(=O)(C1CC1)n1cc(-c2nccc(Nc3cc(NC4CCC(O)C4)c(-c4ccn(C(F)F)n4)cn3)n2)cn1 (stereo not shown) [Example 15, 3-((2-((2-(1-(Cyclopropylsulfonyl)-1H-pyrazol-4-yl)pyrimidin-4-yl)amino)-5-(1-(difluoromethyl)-1H-pyrazol-3-yl)pyridin-4-yl)amino)cyclopentan-1-ol]",0.6 nM,–,3.2 nM,–,> 10000 nM,–,9.7 nM,–,0.9 nM,–,–,–,–,–,–
"Cn1ccc(-c2cnc(Nc3ccnc(-c4cnn(S(=O)(=O)C5CC5)c4)n3)cc2N[C@H]2CC[C@@H](NCCF)CC2)n1 [Example 43, N^2-(2-(1-(Cyclopropylsulfonyl)-1H-pyrazol-4-yl)pyrimidin-4-yl)-N^4-((1s,4s)-4-((2-fluoroethyl)amino)cyclohexyl)-5-(1-methyl-1H-pyrazol-3-yl)pyridine-2,4-diamine]",0.3 nM,0.2 nM,–,0.7 nM,5240 nM,4.9 nM,14.7 nM,0.4 nM,0.3 nM,0.1 nM,–,–,–,–,–
"O=S(=O)(C1CC1)n1cc(-c2nccc(Nc3cc(N[C@H]4CC[C@@H](NCCF)CC4)c(-c4csc(C(F)(F)F)n4)cn3)n2)cn1 [Example 50, N^2-(2-(1-(Cyclopropylsulfonyl)-1H-pyrazol-4-yl)pyrimidin-4-yl)-N^4-((1s,4s)-4-((2-fluoroethyl)amino)cyclohexyl)-5-(2-(trifluoromethyl)thiazol-4-yl)pyridine-2,4-diamine]",–,–,–,–,–,–,–,–,–,–,1.1 nM,25.6 nM,> 10000 nM,42.2 nM,1.6 nM
"O=S(=O)(C1CC1)n1cc(-c2nccc(Nc3cc(NC[C@H]4CC[C@H](NCC(F)F)CC4)c(-c4ccn(C(F)F)n4)cn3)n2)cn1 [Example 130, N^2-(2-(1-(Cyclopropylsulfonyl)-1H-pyrazol-4-yl)pyrimidin-4-yl)-N^4-(((1r,4r)-4-((2,2-difluoroethyl)amino)cyclohexyl)methyl)-5-(1-(difluoromethyl)-1H-pyrazol-3-yl)pyridine-2,4-diamine]",–,–,–,–,–,–,–,–,–,–,2.1 nM,6.3 nM,> 10000 nM,96.5 nM,2 nM

# The next lines start with results.
"IC50 [1, 6]","IC50 [1, 7]","IC50 [2, 8]","IC50 [2, 9]","IC50 [3, 10]","IC50 [3, 11]","IC50 [4, 12]","IC50 [4, 13]","IC50 [5, 14]","IC50 [5, 15]",Structure (SMILES),"IC50 [1, 16]","IC50 [2, 17]","IC50 [3, 18]","IC50 [4, 19]","IC50 [5, 20]"
0.2 nM,0.3 nM,0.3 nM,0.3 nM,> 10000 nM,6.1 nM,7.8 nM,1.1 nM,0.2 nM,0.1 nM,"O=S(=O)(C1CC1)n1cc(-c2nccc(Nc3cc(N[C@H]4CC[C@](O)(CO)CC4)c(-c4ccn(C(F)F)n4)cn3)n2)cn1 [Example 188, (1s,4s)-4-((2-((2-(1-(Cyclopropylsulfonyl)-1H-pyrazol-4-yl)pyrimidin-4-yl)amino)-5-(1-(difluoromethyl)-1H-pyrazol-3-yl)pyridin-4-yl)amino)-1-(hydroxymethyl)cyclohexan-1-ol]",–,–,–,–,–
–,1.2 nM,–,24 nM,–,687 nM,–,12.5 nM,–,0.7 nM,"CC(C)Nc1cc(Nc2ccnc(-c3cnn(S(=O)(=O)C4CC4)c3)n2)ncc1-c1ccn(C(F)F)n1 [Example 144, N^2-(2-(1-(Cyclopropylsulfonyl)-1H-pyrazol-4-yl)pyrimidin-4-yl)-5-(1-(difluoromethyl)-1H-pyrazol-3-yl)-N^4-isopropylpyridine-2,4-diamine]",–,–,–,–,–
0.1 nM,–,1.7 nM,–,1790 nM,–,8.7 nM,–,0.2 nM,–,"CN(C)C[C@H]1C[C@@H](CNc2cc(Nc3ccnc(-c4cnn(S(=O)(=O)C5CC5)c4)n3)ncc2-c2ccn(C)n2)C1 [Example 234, N^2-(2-(1-(Cyclopropylsulfonyl)-1H-pyrazol-4-yl)pyrimidin-4-yl)-N^4-(((1s,3s)-3-((dimethylamino)methyl)cyclobutyl)methyl)-5-(1-methyl-1H-pyrazol-3-yl)pyridine-2,4-diamine]",–,–,–,–,–
–,2.7 nM,–,144 nM,–,1730 nM,–,47.2 nM,–,2.7 nM,"C[C@]1(O)CC[C@@H](Nc2cc(Nc3ccnc(-c4cnn(C(F)F)c4)n3)ncc2-c2ccn(C(F)F)n2)CC1 [Example 149, (1s,4s)-4-((5-(1-(Difluoromethyl)-1H-pyrazol-3-yl)-2-((2-(1-(difluoromethyl)-1H-pyrazol-4-yl)pyrimidin-4-yl)amino)pyridin-4-yl)amino)-1-methylcyclohexan-1-ol]",–,–,–,–,–
0.9 nM,0.6 nM,2.3 nM,1.4 nM,> 10000 nM,29.7 nM,41.7 nM,3 nM,0.9 nM,0.3 nM,"C[C@]1(O)CC[C@@H](Nc2cc(Nc3ccnc(-c4cnn(S(=O)(=O)C5CC5)c4)n3)ncc2-c2csc(N3CCOCC3)n2)CC1 [Example 120, (1s,4s)-4-((2-((2-(1-(Cyclopropylsulfonyl)-1H-pyrazol-4-yl)pyrimidin-4-yl)amino)-5-(2-morpholinothiazol-4-yl)pyridin-4-yl)amino)-1-methylcyclohexan-1-ol]",–,–,–,–,–
1.1 nM,0.9 nM,2.1 nM,–,> 10000 nM,22.4 nM,21.5 nM,4.4 nM,1.2 nM,0.4 nM,"O=S(=O)(C1CC1)n1cc(-c2nccc(Nc3cc(NC[C@H]4CC[C@H](CO)CC4)c(-c4ccn(C(F)F)n4)cn3)n2)cn1 [Example 22, ((1r,4r)-4-(((2-((2-(1-(Cyclopropylsulfonyl)-1H-pyrazol-4-yl)pyrimidin-4-yl)amino)-5-(1-(difluoromethyl)-1H-pyrazol-3-yl)pyridin-4-yl)amino)methyl)cyclohexyl)methanol]",–,–,–,–,–
0.5 nM,0.5 nM,24.8 nM,23.7 nM,> 10000 nM,60.7 nM,182 nM,9.1 nM,2.5 nM,0.3 nM,"O=C1NCCCC1Nc1cc(Nc2ccnc(-c3cnn(S(=O)(=O)C4CC4)c3)n2)ncc1-c1ccn(C(F)F)n1 (stereo not shown) [Example 38, 3-((2-((2-(1-(Cyclopropylsulfonyl)-1H-pyrazol-4-yl)pyrimidin-4-yl)amino)-5-(1-(difluoromethyl)-1H-pyrazol-3-yl)pyridin-4-yl)amino)piperidin-2-one]",–,–,–,–,–

# Reference: patent US12258327B2, “5-membered heteroaryl-containing aminopyridine compounds as EGFR inhibitors” (YUHAN CORPORATION, priority 2021, dated 2025)
